# In ChEMBL document CHEMBL1201862, “PubChem BioAssay data set” (2004):
#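 Test compounds were applied to cells in 96-well plates for 48 hours at 5 doses. GI50 = concentration required for 50% inhibition of growth.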 Calls of active or inactive are those of the source. Cut-off read from the data, not from the text of the source: active = GI50 up to about 1.1 µM and inactive = higher.
# Experiments:
# Experiment in all cases: DTP human tumour cell line panel, 48 h
# MDA-N = tested on: MDA-N
# SF-268 = tested on: SF-268
# OVCAR-8 = tested on: OVCAR-8
# M14 = tested on: M14
# EKVX = tested on: EKVX
# LOX IMVI = tested on: LOX IMVI
# UACC-62 = tested on: UACC-62
# SW-620 = tested on: SW-620
# SR = tested on: SR
# OVCAR-5 = tested on: OVCAR-5
# DU-145 = tested on: DU-145
# MDA-MB-435 = tested on: MDA-MB-435
# HT-29 = tested on: HT-29
# A498 = tested on: A498
# MCF7 = tested on: MCF7
# A549 = tested on: A549
# MDA-MB-231 = tested on: MDA-MB-231
# UACC-257 = tested on: UACC-257
# HCT-116 = tested on: HCT-116
# IGROV-1 = tested on: IGROV-1
# SK-MEL-2 = tested on: SK-MEL-2
# SNB-75 = tested on: SNB-75
# NCI-H226 = tested on: NCI-H226
# U-251 = tested on: U-251
# SK-MEL-28 = tested on: SK-MEL-28
# SNB-19 = tested on: SNB-19
# ACHN = tested on: ACHN
# UO-31 = tested on: UO-31
# K562 = tested on: K562
# SK-MEL-5 = tested on: SK-MEL-5
# T47D = tested on: T47D
# Hs-578T = tested on: Hs-578T
# KM12 = tested on: KM12
# SK-OV-3 = tested on: SK-OV-3
# HCC 2998 = tested on: HCC 2998
# MOLT-4 = tested on: MOLT-4
# OVCAR-4 = tested on: OVCAR-4
# CCRF-CEM = tested on: CCRF-CEM
# HOP-62 = tested on: HOP-62
# COLO 205 = tested on: COLO 205
# SF-295 = tested on: SF-295
# HL-60 = tested on: HL-60
# 786-0 = tested on: 786-0
# NCI-H460 = tested on: NCI-H460
# RXF 393 = tested on: RXF 393
# OVCAR-3 = tested on: OVCAR-3
# HOP-92 = tested on: HOP-92
# CAKI-1 = tested on: CAKI-1
# SN12C = tested on: SN12C
# BT-549 = tested on: BT-549
# HCT-15 = tested on: HCT-15
# RPMI-8226 = tested on: RPMI-8226
# NCI/ADR-RES = tested on: NCI/ADR-RES
# NCI-H522 = tested on: NCI-H522
# TK-10 = tested on: TK-10
# SF-539 = tested on: SF-539
# NCI-H23 = tested on: NCI-H23
# Malme-3M = tested on: Malme-3M
# PC-3 = tested on: PC-3
smiles,measurement,setting,value
COc1ccc(C2C(C(=O)c3ccccc3)=C(O)C(O)(CC(=O)c3ccccc3)N2c2ccc(OC)cc2)cc1 (stereo not drawn),GI50,MDA-N,20900 nM (inactive)
same,GI50,SF-268,33700 nM (inactive)
same,GI50,OVCAR-8,10400 nM (inactive)
same,GI50,M14,31200 nM (inactive)
same,GI50,EKVX,24600 nM (inactive)
same,GI50,LOX IMVI,15200 nM (inactive)
same,GI50,UACC-62,22800 nM (inactive)
same,GI50,SW-620,9080 nM (inactive)
same,GI50,SR,4660 nM (inactive)
same,GI50,OVCAR-5,23600 nM (inactive)
same,GI50,DU-145,38400 nM (inactive)
same,GI50,MDA-MB-435,18600 nM (inactive)
same,GI50,HT-29,19300 nM (inactive)
same,GI50,A498,44600 nM (inactive)
same,GI50,MCF7,11900 nM (inactive)
same,GI50,A549,22400 nM (inactive)
same,GI50,MDA-MB-231,19200 nM (inactive)
same,GI50,UACC-257,7940 nM (inactive)
same,GI50,HCT-116,9290 nM (inactive)
same,GI50,IGROV-1,21900 nM (inactive)
same,GI50,SK-MEL-2,16100 nM (inactive)
same,GI50,SNB-75,34100 nM (inactive)
same,GI50,NCI-H226,16100 nM (inactive)
same,GI50,U-251,8090 nM (inactive)
same,GI50,SK-MEL-28,28600 nM (inactive)
same,GI50,SNB-19,12200 nM (inactive)
same,GI50,ACHN,21000 nM (inactive)
same,GI50,UO-31,11500 nM (inactive)
same,GI50,K562,16600 nM (inactive)
same,GI50,SK-MEL-5,9570 nM (inactive)
same,GI50,T47D,18500 nM (inactive)
same,GI50,Hs-578T,28600 nM (inactive)
same,GI50,KM12,11200 nM (inactive)
same,GI50,SK-OV-3,25200 nM (inactive)
same,GI50,HCC 2998,11100 nM (inactive)
same,GI50,MOLT-4,12500 nM (inactive)
same,GI50,OVCAR-4,19100 nM (inactive)
same,GI50,CCRF-CEM,3520 nM (inactive)
same,GI50,HOP-62,18800 nM (inactive)
same,GI50,COLO 205,17600 nM (inactive)
same,GI50,SF-295,12300 nM (inactive)
same,GI50,HL-60,5780 nM (inactive)
same,GI50,786-0,16800 nM (inactive)
same,GI50,NCI-H460,24400 nM (inactive)
same,GI50,RXF 393,9380 nM (inactive)
same,GI50,OVCAR-3,7670 nM (inactive)
same,GI50,HOP-92,4200 nM (inactive)
same,GI50,CAKI-1,24500 nM (inactive)
same,GI50,SN12C,21600 nM (inactive)
same,GI50,BT-549,7550 nM (inactive)
same,GI50,HCT-15,9380 nM
same,GI50,RPMI-8226,5040 nM (inactive)
same,GI50,NCI/ADR-RES,12500 nM (inactive)
same,GI50,NCI-H522,4350 nM (inactive)
same,GI50,TK-10,16300 nM (inactive)
same,GI50,SF-539,24400 nM (inactive)
same,GI50,NCI-H23,21100 nM (inactive)
same,GI50,Malme-3M,28000 nM (inactive)
same,GI50,PC-3,11600 nM (inactive)
CC(=O)OC(C)c1cc2c(s1)C(=O)c1scc(C(C)OC(C)=O)c1C2=O (stereo not drawn),GI50,MDA-N,81.7 nM (active)
same,GI50,SF-268,211 nM (active)
same,GI50,OVCAR-8,240 nM (active)
same,GI50,M14,117 nM (active)
same,GI50,EKVX,847 nM (active)
same,GI50,LOX IMVI,118 nM (active)
same,GI50,UACC-62,212 nM (active)
same,GI50,SW-620,298 nM (active)
same,GI50,SR,210 nM (active)
same,GI50,OVCAR-5,570 nM (active)
same,GI50,DU-145,178 nM (active)
same,GI50,MDA-MB-435,29.2 nM (active)
same,GI50,HT-29,391 nM (active)
same,GI50,A498,619 nM (active)
same,GI50,MCF7,251 nM (active)
same,GI50,A549,363 nM (active)
same,GI50,MDA-MB-231,473 nM (active)
same,GI50,UACC-257,174 nM (active)
same,GI50,HCT-116,285 nM (active)
same,GI50,IGROV-1,662 nM (active)
same,GI50,SK-MEL-2,227 nM (active)
same,GI50,SNB-75,185 nM (active)
same,GI50,NCI-H226,2240 nM (inactive)
same,GI50,U-251,250 nM (active)
same,GI50,SK-MEL-28,226 nM (active)
same,GI50,SNB-19,201 nM (active)
same,GI50,ACHN,238 nM (active)
same,GI50,UO-31,204 nM (active)
same,GI50,K562,355 nM (active)
same,GI50,SK-MEL-5,65.3 nM (active)
same,GI50,T47D,661 nM (active)
same,GI50,Hs-578T,339 nM (active)
same,GI50,KM12,195 nM (active)
same,GI50,SK-OV-3,2160 nM (inactive)
same,GI50,HCC 2998,317 nM (active)
same,GI50,MOLT-4,324 nM (active)
same,GI50,OVCAR-4,298 nM (active)
same,GI50,CCRF-CEM,367 nM (active)
same,GI50,HOP-62,191 nM (active)
same,GI50,COLO 205,512 nM (active)
same,GI50,SF-295,164 nM (active)
same,GI50,HL-60,646 nM (active)
same,GI50,786-0,244 nM (active)
same,GI50,NCI-H460,167 nM (active)
same,GI50,RXF 393,301 nM (active)
same,GI50,OVCAR-3,307 nM (active)
same,GI50,HOP-92,1710 nM (inactive)
same,GI50,CAKI-1,1560 nM (inactive)
same,GI50,SN12C,288 nM (active)
same,GI50,BT-549,218 nM (active)
same,GI50,HCT-15,195 nM
same,GI50,RPMI-8226,223 nM (active)
same,GI50,NCI/ADR-RES,255 nM (active)
same,GI50,NCI-H522,215 nM (active)
same,GI50,TK-10,571 nM (active)
same,GI50,SF-539,175 nM (active)
same,GI50,NCI-H23,157 nM (active)
same,GI50,Malme-3M,139 nM (active)
same,GI50,PC-3,292 nM (active)
